Results published in paper PMC3179492, “HIV Protease Inhibitors Act as Competitive Inhibitors of the Cytoplasmic Glucose Binding Site of GLUTs with Differing Affinities for GLUT1 and GLUT4” (PLoS ONE, 2011).
Values joined by “and” are separate entries in the source; they are usually repeats but may differ in a detail not shown here. Equal entries are not always repeated. Where two headings read alike, the source gives them in different places.

Columns and labels:
[1] = target: human erythrocytes; design: method as in PMID 2390055; conditions: read-out: Ki for inhibition of sugar uptake; cited from earlier work
[2] = target: insulin-stimulated rat adipocytes; conditions: read-out: Ki for inhibition of sugar uptake; cited from earlier work
[3] = target: T1, GLUT4 (Mus musculus, UniProt P14142); assay: Kinetic (Scatchard) analysis of indinavir effect on ATB-BMPA labeling of GLUT4 in LDM; format: binding; design: LDM contains small intracellular vesicles of GLUT4 and GLUT1; endogenous in cells; host or cells: low-density microsome fraction of differentiated 3T3-L1 adipocytes; conditions: for Kd: Scatchard plot
T1 sequence (P14142 1-509): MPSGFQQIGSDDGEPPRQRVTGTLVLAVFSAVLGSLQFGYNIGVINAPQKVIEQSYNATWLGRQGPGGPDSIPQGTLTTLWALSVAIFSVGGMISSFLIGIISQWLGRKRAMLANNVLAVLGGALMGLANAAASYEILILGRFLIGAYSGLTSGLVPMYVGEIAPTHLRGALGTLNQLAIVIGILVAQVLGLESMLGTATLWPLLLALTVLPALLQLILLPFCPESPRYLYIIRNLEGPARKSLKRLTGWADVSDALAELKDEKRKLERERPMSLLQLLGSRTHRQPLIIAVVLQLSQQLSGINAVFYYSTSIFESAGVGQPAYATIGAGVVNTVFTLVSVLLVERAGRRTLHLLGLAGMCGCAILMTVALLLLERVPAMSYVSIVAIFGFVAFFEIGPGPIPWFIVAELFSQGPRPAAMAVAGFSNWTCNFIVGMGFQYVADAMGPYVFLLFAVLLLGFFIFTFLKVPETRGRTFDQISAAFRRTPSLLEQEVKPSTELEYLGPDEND
Description: ATB-BMPA (50, 100, 200, 300 µM final concentration) was then added for an additional 10 min (5 min at room temperature, 5 min at 4 °C). Samples (110 µl final volume) were UV irradiated as described above. After removal of excess label with a desalting spin column, GLUT4 protein was immunoprecipitated from Thesit-solubilized LDM using a GLUT4 C-terminal directed antibody. ATB-BMPA-bound GLUT4 was analyzed by immunoblot analysis using an IR Dye 800 CW fluorescent streptavidin (LI-COR) and quantified with an Odyssey Infrared Imaging System. Identical samples that were not UV irradiated were used to correct for non-specific binding. The free ATB-BMPA concentration was assumed to be equal to the total ATB-BMPA concentration since the label concentration far exceeded the GLUT4 concentration. The data was expressed as Scatchard plots, bound/free versus bound. The Bmax and Kd values were determined from the horizontal intercept and the negative […], respectively.

[4] = target: T2, GLUT1 (Mus musculus, UniProt P17809); assay: ATB-BMPA photolabeling of low-density microsomes (LDM) from 3T3-L1 adipocytes, GLUT1; format: binding; conditions: for IC50: LDM 200 µg, biotinylated ATB-BMPA 50 µM, mean ± S.E., n = 3, read-out: Half-maximal inhibition (IC50) of ATB-BMPA binding to GLUT1
T2 construct: LDM contains small intracellular vesicles of GLUT4 and GLUT1; endogenous in cells; host or cells: low-density microsome fraction of differentiated 3T3-L1 adipocytes
T2 sequence (P17809 1-492): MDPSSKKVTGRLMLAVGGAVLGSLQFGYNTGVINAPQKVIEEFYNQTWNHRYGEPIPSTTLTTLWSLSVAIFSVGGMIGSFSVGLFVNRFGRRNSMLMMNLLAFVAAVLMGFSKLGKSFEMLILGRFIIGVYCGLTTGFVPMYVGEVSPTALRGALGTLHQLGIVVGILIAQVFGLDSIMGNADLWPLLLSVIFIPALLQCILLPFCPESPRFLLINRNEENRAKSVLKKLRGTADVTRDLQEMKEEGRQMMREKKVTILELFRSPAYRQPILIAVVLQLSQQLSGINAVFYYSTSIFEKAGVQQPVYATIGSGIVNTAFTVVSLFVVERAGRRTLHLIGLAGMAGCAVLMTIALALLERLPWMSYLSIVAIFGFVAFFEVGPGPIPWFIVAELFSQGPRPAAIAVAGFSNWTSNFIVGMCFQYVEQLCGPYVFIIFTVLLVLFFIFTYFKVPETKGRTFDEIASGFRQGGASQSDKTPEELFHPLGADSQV
Description: (§1) 3T3-L1 fibroblasts were grown to confluency and 48 h later subjected to differentiation as previously described. 3T3-L1 adipocytes were used 10 – 14 days after differentiation. Six culture dishes (15 cm) of adipocytes were serum-starved overnight, washed 3 times with ice-cold HES buffer (50 mM Hepes, pH 7.4, 255 mM sucrose, and 1 mM EDTA) containing Roche complete protease inhibitors (Roche Applied Science, Mannheim, Germany), scraped into 5 ml of the same buffer, and then homogenized with either a ball-bearing homogenizer or with a Potter-Elvehjem tissue grinder and a PTFE pestle. The low-density microsome (LDM) fraction was obtained by differential centrifugation as described previously. LDM were resuspended in phosphate buffer (25 mM phosphate, pH 7.4, 100 mM NaCl, 5% glycerol) containing complete Roche protease inhibitors.
(§2) Inhibitors were added to LDM (200 µg protein unless otherwise stated) for 10 min at room temperature. Samples (final volume 110 µl) were then incubated for 10 min at room temperature in the dark with biotinylated ATB-BMPA (50 µM final concentration) and then placed on ice prior to UV irradiation. Reactions were transferred to a 24-well low protein retention culture dish (Costar, Corning, NY) and then irradiated at room temperature 5 cm from a Green Spot UV lamp for 1 min (30 sec of light, followed by 30 sec of darkness, followed by 30 sec of light).
(§3) 20 µl of BSA (1.5 mg/ml final concentration) was added to the UV irradiated samples in a siliconized eppendorph tube. Excess biotinylated ATB-BMPA label was removed using a 0.5 ml Zeba Spin Desalting Column (Pierce). Biotinylated proteins were isolated essentially as described previously. Membranes were solubilized for 30 min at 4°C with 2% Thesit detergent buffer containing protease inhibitors. After centrifugation at 16,000 x g for 10 min, the supernatants were incubated overnight at 4°C with 50 µl of high capacity Streptavidin Agarose resin (Pierce). Precipitates were washed 3 times with 1% Thesit detergent buffer, twice with 0.1% Thesit detergent buffer, and once with phosphate buffer. Biotinylated proteins were eluted at 95 – 100°C for 20 min in 60 µl of 2X Laemmli Sample Buffer containing 40 mM dithiothreitol. Half of the eluted proteins were subjected to SDS-PAGE and transferred to nitrocellulose. Immunoblot analysis was carried out using GLUT4 and GLUT1 specific antibodies and quantified using an Odyssey Infrared Imaging System (LI-COR Biosciences, Lincoln, NE).

[5] = system: 3T3-L1 fibroblasts; assay: 2-Deoxyglucose uptake in 3T3-L1 fibroblasts (express only GLUT1); format: cell-based; conditions: for Effect on 2-deoxyglucose uptake (GLUT1 transporter activity): 3T3-L1 fibroblasts
Description: 3T3-L1 fibroblasts were grown to confluency in Dulbecco's modified Eagle's medium (DMEM) supplemented with 10% calf serum. The uptake of [^3H]2-Deoxyglucose (50 µM) was measured in Krebs-Ringer phosphate buffer for 6 min at 37°C as previously described. HIV protease inhibitors were added 6 min prior to the start of the reaction. Non-specific uptake measured in the presence of 20 µM cytochalasin B (Sigma) was subtracted from the experimental values.

[6] = system: primary rat adipocytes; assay: 2-Deoxyglucose uptake in insulin-stimulated primary rat adipocytes (predominantly GLUT4); format: cell-based; conditions: for Effect on 2-deoxyglucose uptake (GLUT4 transporter activity): primary rat adipocytes
Description: Adipocytes from epididymal fat pads were prepared from male Wistar rats weighing 150 – 200 g (from Charles River Laboratories, Inc., Wilmington, MA) as previously described. Adipocytes were stimulated with 1 µM insulin for 30 min at 37°C prior to use. 2-Deoxyglucose uptakes were performed by adding 80 µl of the cell suspension to 80 µl of Krebs-Ringer bicarbonate Hepes buffer (KRB) (120 mM NaCl, 4 mM KH2PO4, 1 mM MgSO4, 1 mM CaCl2, 10 mM NaHCO3, 200 nM adenosine, 30 mM Hepes, pH 7.4) containing 3% bovine serum albumin. HIV protease inhibitors / vehicle were added 5 min prior to the initiation of the reaction. Uptakes were initiated with the addition of 20 µl of [^3H]2-deoxyglucose (final 2-deoxyglucose concentration 50 µM; 0.5 µCi/assay). After 1 min at 37 °C, reactions were quenched with cytochalasin B to a final concentration of 0.4 mM. The cells were separated by spinning the reaction through dinonylphthalate as previously described and the intracellular radioactivity was quantified by liquid scintillation counting. Non-specific uptake measured in the presence of 20 µM cytochalasin B (Sigma) was subtracted from the experimental values.

[7] = target: T1, GLUT4; assay: ATB-BMPA photolabeling of low-density microsomes (LDM) from 3T3-L1 adipocytes, GLUT4; format: binding; design: LDM contains small intracellular vesicles of GLUT4 and GLUT1; endogenous in cells; host or cells: low-density microsome fraction of differentiated 3T3-L1 adipocytes; conditions: for IC50: LDM 200 µg, biotinylated ATB-BMPA 50 µM, mean ± S.E., n = 3, read-out: Half-maximal inhibition (IC50) of ATB-BMPA binding to GLUT4; for Selectivity GLUT4 vs GLUT1, inhibition of ATB-BMPA labeling: LDM of 3T3-L1 adipocytes
Description: as §1, §2, §3

[8] = system: myotubes; design: method as in PMID 1401073; conditions: read-out: IC50 for inhibition of 2-deoxy-glucose uptake into myotubes; cited from earlier work
[9] = target: primary rat adipocytes; conditions: read-out: KI from inhibition of zero trans glucose uptake; cited from earlier work
[10] = target: T1, GLUT4; conditions: Xenopus oocytes; read-out: Binding affinity (KI) for GLUT4 in the oocyte system; cited from earlier work
[11] = 10 µM PI (therapeutic concentration)

SMILES	Effect on ATB-BMPA labeling of GLUT1 [4, 11]	Effect on ATB-BMPA labeling of GLUT1 ([4]; 50 µM PI)	IC50 [4]	Effect on 2-deoxyglucose uptake (GLUT1 transporter activity) ([5]; 10 µM PI)	Effect on 2-deoxyglucose uptake (GLUT1 transporter activity) ([5]; 50 µM PI)	Effect on 2-deoxyglucose uptake (GLUT4 transporter activity) ([6]; 10 µM PI)	Effect on 2-deoxyglucose uptake (GLUT4 transporter activity) ([6]; 50 µM PI)	Effect on ATB-BMPA labeling of GLUT4 [7, 11]	Effect on ATB-BMPA labeling of GLUT4 ([7]; 50 µM PI)	IC50 [7] [µM]	also measured
O=C(CCCCC1SCC2NC(=O)NC21)NCCCCCC(=O)NCCOCCOCCOc1cc(C2(C(F)(F)F)N=N2)ccc1C(=O)NC(CO[C@H]1[C@H](O)[C@H](O)C(O)O[C@@H]1CO)CO[C@H]1[C@H](O)[C@H](O)C(O)O[C@@H]1CO (stereo partly drawn) [ATB-BMPA]											Ki [1]: ~350 µM; Ki [2]: ~350 µM; Kd ([3]; 0 µM indinavir, read-out: Kd of ATB-BMPA binding to GLUT4): 75 µM; Kd ([3]; 10 µM indinavir, read-out: Kd (apparent) of ATB-BMPA binding to GLUT4): 152 µM; Kd ([3]; 20 µM indinavir, read-out: Kd (apparent) of ATB-BMPA binding to GLUT4): 218 µM; Kd ([3]; 50 µM indinavir, read-out: Kd (apparent) of ATB-BMPA binding to GLUT4): 510 µM
COC(=O)N[C@H](C(=O)N[C@@H](Cc1ccccc1)[C@@H](O)CN(Cc1ccc(-c2ccccn2)cc1)NC(=O)[C@@H](NC(=O)OC)C(C)(C)C)C(C)(C)C [Atazanavir, atazanavir]	no effect	affected	59 ± 4.8 µM	no effect	affected	no effect	affected	no effect	affected	66 ± 3.3	Selectivity GLUT4 vs GLUT1, inhibition of glucose uptake ([6]; primary rat adipocytes vs 3T3-L1 fibroblasts): non-specific GLUT inhibitor; Selectivity GLUT4 vs GLUT1, inhibition of ATB-BMPA labeling [7]: non-specific GLUT inhibitor; Selectivity GLUT4 vs GLUT1, inhibition of ATB-BMPA labeling ([7]; listed as atazanavir): non-selective
C=C1[C@@H](C)[C@H]2[C@H](Cc3ccccc3)NC(=O)[C@]23OC(=O)/C=C/[C@H](O)CCC[C@@H](C)C/C=C/[C@H]3[C@@H]1O [CB, cytochalasin B]			0.35 µM and 0.36 µM							0.44 ± 0.07	IC50 [8]: 400 nM
CC(C)(C)NC(=O)[C@@H]1CN(Cc2cccnc2)CCN1C[C@@H](O)C[C@@H](Cc1ccccc1)C(=O)N[C@H]1c2ccccc2C[C@H]1O [Indinavir, indinavir]			178 ± 43 µM	unaffected	affected but a lesser extent than GLUT4	reduced	affected			20.7 ± 3.9	IC50 ([5]; Mus musculus, 3T3-L1, basal, 50 µM 2-deoxyglucose, read-out: IC50 for inhibition of 2-deoxyglucose uptake in 3T3-L1 fibroblasts): 241 µM; IC50 ([6]; Rattus norvegicus, Adipocyte, insulin-stimulated, 50 µM 2-deoxyglucose, read-out: IC50 for inhibition of 2-deoxyglucose uptake in primary rat adipocytes): 11 µM; Ki [9]: 15 µM; Ki [10]: 50 µM; Ki ([3]; from Kd(apparent) = Kd (1 + [I]/KI), LDM 50 µg, read-out: KI, competitive inhibition of ATB-BMPA binding to the cytoplasmic glucose binding site of GLUT4): 8.2 µM
CC(C)c1nc(CN(C)C(=O)N[C@H](C(=O)N[C@@H](Cc2ccccc2)C[C@H](O)[C@H](Cc2ccccc2)NC(=O)OCc2cncs2)C(C)C)cs1 [Ritonavir, ritonavir]		affected			affected		affected		affected		
CCC[C@@]1(CCc2ccccc2)CC(O)=C([C@H](CC)c2cccc(NS(=O)(=O)c3ccc(C(F)(F)F)cn3)c2)C(=O)O1 [Tipranavir]	no effect	no effect		no effect	no effect	no effect	no effect	no effect	no effect		
